We go through 31 compounds from US8183262B2, “Pyridine derivatives as mGluR2 antagonists” (Hoffmann-La Roche Inc., priority 2007, dated 2012).

For orientation: melting point means the temperature of the solid-liquid transition. Consider `NS(=O)(=O)c1cccc(-c2cccc(-c3nc(-c4ccc(Cl)cc4Cl)cc(C(F)(F)F)n3)c2)c1` [Example 410, 3′-[4-(2,4-Dichloro-phenyl)-6-trifluoromethyl-pyrimidin-2-yl]-biphenyl-3-sulfonic acid amide], for which the melting point amounted to 202 °C.
The same measure for `NS(=O)(=O)c1ccc(-c2cccc(-c3nc(-c4ccc(Cl)cc4Cl)cc(C(F)(F)F)n3)c2)s1` [Example 411, 5-{3-[4-(2,4-Dichloro-phenyl)-6-trifluoromethyl-pyrimidin-2-yl]-phenyl}-thiophene-2-sulfonic acid amide]: 237.5 °C; for `NS(=O)(=O)c1cccc(-c2cccc(-c3nc(-c4ccc(C(F)(F)F)cc4F)cc(C(F)(F)F)n3)c2)c1` [Example 412, 3′-[4-(2-Fluoro-4-trifluoromethyl-phenyl)-6-trifluoromethyl-pyrimidin-2-yl]-biphenyl-3-sulfonic acid amide]: 224.5 °C; for `NS(=O)(=O)c1ccc(-c2cccc(-c3nc(-c4ccc(C(F)(F)F)cc4F)cc(C(F)(F)F)n3)c2)s1` [Example 413, 5-{3-[4-(2-Fluoro-4-trifluoromethyl-phenyl)-6-trifluoromethyl-pyrimidin-2-yl]-phenyl}-thiophene-2-sulfonic acid amide]: 192 °C.
To `Cc1cc(-c2cc(C(F)(F)F)nc(-c3ccnc(-c4ccc(S(N)(=O)=O)s4)c3)n2)ccc1Cl` [Example 414, 5-{4-[4-(4-Chloro-3-methyl-phenyl)-6-trifluoromethyl-pyrimidin-2-yl]-pyridin-2-yl}-thiophene-2-sulfonic acid amide] belongs 280 °C.
`Cc1cc(-c2cc(C(F)(F)F)nc(-c3ccnc(-c4cccc(S(N)(=O)=O)c4)c3)n2)ccc1Cl` [Example 415, 3-{4-[4-(4-Chloro-3-methyl-phenyl)-6-trifluoromethyl-pyrimidin-2-yl]-pyridin-2-yl}-benzenesulfonamide] returned a melting point of 234 °C.
Compound `Cc1cc(-c2ccc(C(F)(F)F)c(C)c2)nc(-c2cccc(-c3cccc(S(N)(=O)=O)c3)c2)n1` [Example 416, 3′-[4-Methyl-6-(3-methyl-4-trifluoromethyl-phenyl)-pyrimidin-2-yl]-biphenyl-3-sulfonic acid amide] showed a melting point of 222.5 °C.
The same measure for `Cc1cc(-c2ccc(C(F)(F)F)c(C)c2)nc(-c2cccc(-c3ccc(S(N)(=O)=O)s3)c2)n1` [Example 417, 5-{3-[4-Methyl-6-(3-methyl-4-trifluoromethyl-phenyl)-pyrimidin-2-yl]-phenyl}-thiophene-2-sulfonic acid amide]: 242 °C; for `Cc1cc(-c2ccc(C(F)(F)F)cc2)nc(-c2cccc(-c3cccc(S(=O)(=O)NC(C)(C)C)c3)n2)n1` [Example 418, N-tert-Butyl-3-{6-[4-methyl-6-(4-trifluoromethyl-phenyl)-pyrimidin-2-yl]-pyridin-2-yl}-benzenesulfonamide]: > 250 °C; for `Cc1cc(-c2ccc(C(F)(F)F)cc2)nc(-c2cccc(-c3cccc(S(N)(=O)=O)c3)n2)n1` [Example 419, 3-{6-[4-Methyl-6-(4-trifluoromethyl-phenyl)-pyrimidin-2-yl]-pyridin-2-yl}-benzenesulfonamide]: 239 °C (dec.).
The same measure for `CNS(=O)(=O)c1cccc(-c2cccc(-c3cc(-c4ccc(C(F)(F)F)cc4)cc(C)n3)n2)c1` [Example 422, N-Methyl-3-[6′-methyl-4′-(4-trifluoromethyl-phenyl)-[2,2′]bipyridinyl-6-yl]-benzenesulfonamide]: 176 °C; for `Cc1cc(-c2ccc(C(F)(F)F)cc2)cc(-c2cccc(-c3cccc(S(=O)(=O)N(C)C)c3)n2)n1` [Example 423, N,N-Dimethyl-3-[6′-methyl-4′-(4-trifluoromethyl-phenyl)-[2,2′]bipyridinyl-6-yl]-benzenesulfonamide]: 155 °C; for `Cc1cc(-c2ccc(C(F)(F)F)cc2)cc(-c2cccc(-c3cccc(S(=O)(=O)NC4CC4)c3)n2)n1` [Example 424, N-Cyclopropyl-3-[6′-methyl-4′-(4-trifluoromethyl-phenyl)-[2,2′]bipyridinyl-6-yl]-benzenesulfonamide]: 150 °C.
To `Cc1cc(-c2ccc(C(F)(F)F)cc2)cc(-c2cccc(-c3cccc(S(=O)(=O)N(C)C4CC4)c3)n2)n1` [Example 425, N-Cyclopropyl-N-methyl-3-[6′-methyl-4′-(4-trifluoromethyl-phenyl)-[2,2′]bipyridinyl-6-yl]-benzenesulfonamide] belongs 157 °C.
`Cc1cc(-c2ccc(C(F)(F)F)cc2)cc(-c2cccc(-c3cccc(S(=O)(=O)N4CCC4)c3)n2)n1` [Example 426, 6′-[3-(Azetidine-1-sulfonyl)-phenyl]-6-methyl-4-(4-trifluoromethyl-phenyl)-[2,2′]bipyridinyl]: the melting point stood at 158 °C.
The same measure for `Cc1cc(-c2ccc(C(F)(F)F)cc2)cc(-c2cccc(-c3cccc(S(=O)(=O)N4CCC(O)CC4)c3)n2)n1` [Example 427, 1-{3-[6′-Methyl-4′-(4-trifluoromethyl-phenyl)-[2,2′]bipyridinyl-6-yl]-benzenesulfonyl}-piperidin-4-ol]: 195 °C.
To `Cc1cc(-c2ccc(C(F)(F)F)cc2)cc(-c2cccc(-c3cccc(S(=O)(=O)N4CC(O)C4)c3)n2)n1` [Example 428, 1-{3-[6′-Methyl-4′-(4-trifluoromethyl-phenyl)-[2,2′]bipyridinyl-6-yl]-benzenesulfonyl}-azetidin-3-ol] belongs 205 °C.
To `COC1CCN(S(=O)(=O)c2cccc(-c3cccc(-c4cc(-c5ccc(C(F)(F)F)cc5)cc(C)n4)n3)c2)CC1` [Example 429, 6′-[3-(4-Methoxy-piperidine-1-sulfonyl)-phenyl]-6-methyl-4-(4-trifluoromethyl-phenyl)-[2,2′]bipyridinyl] belongs 107 °C; to `Cc1cc(-c2ccc(C(F)(F)F)cc2)cc(-c2cccc(-c3cccc(S(=O)(=O)NCc4ccccc4)c3)n2)n1` [Example 431, N-Benzyl-3-[6′-methyl-4′-(4-trifluoromethyl-phenyl)-[2,2′]bipyridinyl-6-yl]-benzenesulfonamide], 168 °C; to `COc1ccc(CNS(=O)(=O)c2cccc(-c3cccc(-c4cc(-c5ccc(C(F)(F)F)cc5)cc(C)n4)n3)c2)cc1` [Example 432, N-(4-Methoxy-benzyl)-3-[6′-methyl-4′-(4-trifluoromethyl-phenyl)-[2,2′]bipyridinyl-6-yl]-benzenesulfonamide], 126 °C (dec.).
In turn, `Cc1cc(-c2ccc(C(F)(F)F)cc2)cc(-c2cccc(-c3cccc(S(=O)(=O)NCc4ccc(F)cc4)c3)n2)n1` [Example 433, N-(4-Fluoro-benzyl)-3-[6′-methyl-4′-(4-trifluoromethyl-phenyl)-[2,2′]bipyridinyl-6-yl]-benzenesulfonamide] gave a melting point of 175 °C.
The same measure for `Cc1cc(-c2ccc(C(F)(F)F)cc2)cc(-c2cccc(-c3cccc(S(=O)(=O)N4CCC(Oc5ncccn5)CC4)c3)n2)n1` [Example 435, 6-Methyl-6′-{3-[4-(pyrimidin-2-yloxy)-piperidine-1-sulfonyl]-phenyl}-4-(4-trifluoromethyl-phenyl)-[2,2′]bipyridinyl]: 134 °C (dec.).
To `Cc1cc(-c2ccc(OC(F)(F)F)cc2)cc(-c2cccc(-c3cccc(S(=O)(=O)NC(C)(C)C)c3)n2)n1` [Example 436, N-tert-Butyl-3-[6′-methyl-4′-(4-trifluoromethoxy-phenyl)-[2,2′]bipyridinyl-6-yl]-benzenesulfonamide] belongs 148 °C; to `Cc1cc(-c2ccc(OC(F)(F)F)cc2)cc(-c2cccc(-c3cccc(S(N)(=O)=O)c3)n2)n1` [Example 437, 3-[6′-Methyl-4′-(4-trifluoromethoxy-phenyl)-[2,2′]bipyridinyl-6-yl]-benzenesulfonamide], 231 °C (dec.); to `Cc1cc(-c2ccc(C(F)(F)F)c(C)c2)cc(-c2cccc(-c3cccc(S(=O)(=O)NC(C)(C)C)c3)n2)n1` [Example 438, N-tert-Butyl-3-[6′-methyl-4′-(3-methyl-4-trifluoromethyl-phenyl)-[2,2′]bipyridinyl-6-yl]-benzenesulfonamide], 150 °C (dec.).
In the case of `NS(=O)(=O)c1cccc(-c2cccc(-c3cc(-c4ccc(C(F)(F)F)cc4)cc(CO)n3)n2)c1` [Example 439, 3-[6′-Hydroxymethyl-4′-(4-trifluoromethyl-phenyl)-[2,2′]bipyridinyl-6-yl]-benzenesulfonamide], the melting point is 213 °C (dec.).
The same measure for `Cc1cc(-c2ccc(C(F)(F)F)c(C)c2)cc(-c2cccc(-c3cccc(S(N)(=O)=O)c3)n2)n1` [Example 440, 3-[6′-Methyl-4′-(3-methyl-4-trifluoromethyl-phenyl)-[2,2′]bipyridinyl-6-yl]-benzenesulfonamide]: > 250 °C; for `Cc1cc(-c2ccc(C#N)cc2)nc(-c2cccc(-c3cccc(S(N)(=O)=O)c3)n2)n1` [Example 442, 3-{6-[4-(4-Cyano-phenyl)-6-methyl-pyrimidin-2-yl]-pyridin-2-yl}-benzenesulfonamide]: 255 °C.
The same measure for `CC(=O)NS(=O)(=O)c1cccc(-c2cccc(-c3cc(-c4ccc(C(F)(F)F)cc4)cc(C)n3)n2)c1` [Example 443, N-Acetyl-3-[6′-methyl-4′-(4-trifluoromethyl-phenyl)-[2,2′]bipyridinyl-6-yl]-benzenesulfonamide]: 244 °C; for `Cc1cc(-c2ccc(C(F)(F)F)cc2)cc(-c2cccc(-c3cccc(S(=O)(=O)NC4CCOCC4)c3)n2)n1` [Example 444, 3-[6′-Methyl-4′-(4-trifluoromethyl-phenyl)-[2,2′]bipyridinyl-6-yl]-N-(tetrahydro-pyran-4-yl)-benzenesulfonamide]: 163 °C (dec.); for `CCNS(=O)(=O)c1cccc(-c2cccc(-c3cc(-c4ccc(C(F)(F)F)cc4)cc(C)n3)n2)c1` [Example 446, N-Ethyl-3-[6′-methyl-4′-(4-trifluoromethyl-phenyl)-[2,2′]bipyridinyl-6-yl]-benzenesulfonamide]: 135 °C.
